System: VSC concentration
Assay: in vitro Halimeter determination of VSC concentration in saliva fermentation
Type: cell-based, halitosis subjects (saliva)
Settings: compared with CK group, anaerobic cultivation 10 hours
Experimental: Fresh saliva was collected from 10 halitosis subjects (Halimeter index >120). Subjects were required not to consume any food or drink for 2 hours before donating saliva. Saliva was directly spat into a saliva collection tube, 5 ml per person, and mixed. The mixture was centrifuged at 4500 rpm for 10 minutes, and the supernatant was collected, aliquoted, and stored at -80°C for subsequent experimental studies.
(§1) Lysate observation group: In a 10 ml sample vial, 100 µl of saliva was added first, followed by the separate addition of ET-22 viable bacteria (1.0×10^9 CFU/ml), ET-22 heat-inactivated bacterial cells (obtained by inactivating viable bacteria at 1.0×10^9 CFU/ml), and lysate (obtained by inactivating and then filtering viable bacteria at 1.0×10^9 CFU/ml), each at 100µl. Then, 1.8 ml of SHI medium was added. After filling with nitrogen, anaerobic cultivation was performed for 10 hours. Then, the obtained culture was placed in a 60°C water bath for 30-min incubation. VSC concentration was measured using the in vitro Halimeter method.
(§2) Group of two nucleotides: In a 10 ml sample vial, 100 µl of saliva was added first, followed by the separate addition of ET-22 viable bacteria (1.0×10^9 CFU/ml), ET-22 heat-inactivated bacterial cells (obtained by inactivating viable bacteria at 1.0×10^9 CFU/ml), NAD, and FAD (500 µg/ml, 100 µg/ml, 10 µg/ml), each at 100µl. Then, 1.8 ml of SHI medium was added. After filling with nitrogen, anaerobic cultivation was performed for 10 hours. Then, the obtained culture was placed in a 60°C water bath for 30-min incubation. VSC concentration was measured using the in vitro Halimeter method.
as §2, with “five organic acids:” for “two nucleotides:”, “heat-inactivating” for “inactivating”, “CFU/ml),” for “CFU/ml), NAD,”, “five organic acid components” for “FAD”
as §2, with “Observation group” for “Group”, “four polypeptides:” for “two nucleotides:”, “heat-inactivating” for “inactivating”, “CFU/ml),” for “CFU/ml), NAD,”, “components of four polypeptides” for “FAD”
as §1, with “Peptidoglycan” for “Lysate observation”, “peptidoglycan (peptidoglycan extracted from” for “lysate (obtained by inactivating and then filtering”, “CFU/ml).” for “CFU/ml), each at 100µl.”, “method. […]” for “method.”

Measured: VSC concentration

Cc1cc2nc3c(=O)[nH]c(=O)nc-3n(C[C@H](O)[C@H](O)[C@H](O)COP(=O)(O)OP(=O)(O)OC[C@H]3O[C@@H](n4cnc5c(N)ncnc54)[C@H](O)[C@@H]3O)c2cc1C [FAD, Flavin adenine dinucleotide (FAD)]
no significant change: high concentration (500 µg/ml) | low concentration (10 µg/ml) | medium concentration (100 µg/ml)
